Key:
IRE1α endonuclease = target: T1, IRE1α endonuclease (Rattus norvegicus, UniProt A0A4Y1YQ52); assay: XBP1 splicing assay in VSMCs; type: cell-based
T1 construct: endogenous in cells; host or cells: primary aortic vascular smooth muscle cells from 5-week old WKY rats
Description: VSMCs were treated with tunicamycin (1 μg/ml) and either 4μ8c (30 μM) or STF-083010 (60 μM) for 6 h or 24 h. (A) Agarose gel for assessment of XBP1 splicing after 6 h of treatment with tunicamycin and densitometric quantification. (B) Western blot for assessment of ER chaperone expression after 24 h tunicamycin treatment with or without inhibition of IRE1α by 4μ8c. Data is presented as mean±SEM. *, p<0.05 vs. Vehicle; #, p<0.05 vs. Tm.
VSMCs were cultured in DMEM/F12 containing 1% FBS. Confluent cells were treated with L-ascorbic acid-2-phosphate (100 μg/ml) and either TGF-β1 (5 ng/ml) or Ang II (1 μM). (A) Agarose gel for assessment of TGF-β1-induced XBP1 splicing in VSMCs after 24 h. (B) Picro-Sirius Red assay for measurement of collagen deposition induced by combined TGF-β1 and AA2P treatment after 72 h, and inhibition by 4μ8c and STF-083010. (C) Western blot for assessment of collagen chaperone expression after treatment of TGF-β1 and 4μ8c for 48 h. *, p<0.05. (D) Measurement of Ang II-induced collagen production and inhibition by 4μ8c and STF-083010 after 72 h.
VSMCs were isolated from the aortas of 5-week old WKY rats using the explant method^29. The thoracic aorta was removed from the animal and placed in ice-cold 5× Antibiotics-Antimycotics solution (ThermoFisher). The adventitia was gently removed and the aorta was cut longitudinally. The endothelial layer was removed by gentle scraping with forceps. […]
(§1) Total RNA was extracted from cultured cells and rat tissues using the TRIzol reagent (ThermoFisher) according to manufacturer's instructions. RNA concentration and purity were measured using a Nanodrop ND-1000 spectrophotometer (NanoDrop Technologies, Inc.). […]
Aortic VSMCs were isolated from normotensive WKY rats and used for in vitro experiments. […] To test the ability of these compounds to block the IRE1α endonuclease, XBP1 splicing was measured in VSMCs treated with the ER stress inducer tunicamycin for 6 h with or without pre-treatment by 4μ8c or STF-083010. […]

spliced XBP1, GRP78, PDI = assay: Aortic collagen chaperone and ER stress marker expression (qRT-PCR, Western blot) in L-NAME-treated SHRs; type: in vivo, rat
Description: 12-14 week old male SHRs were randomized to receive vehicle, L-NAME (50 mg/L) or L-NAME and 4μ8c (2.5 mg/kg/day i.p.) for 18 days. Total RNA was extracted from flash frozen aortic tissues. (A) qRT-PCR was used to assess relative mRNA expression of spliced XBP1 and GRP78. 18S was used as a housekeeping gene. (B) Protein levels of PDI and GRP78 were assessed by western blotting and normalized to β-actin. Data is presented as mean±SEM. *, p<0.05 vs. NT. #, p<0.05 vs L-NAME.
12-14 week old male SHRs were used to determine the effect of pharmacological IRE1α inhibition on L-NAME-induced vascular stiffening. They were maintained on a 12-hour light-dark cycle with rat chow and water ad libitium. Animals were implanted with radio-telemetry devices (Data Science International, St. Paul, Minn., USA) one week before the start of the study. Animals were randomized into one of three groups (n=6 per group): 1) No treatment, 2) L-NAME (50 mg/L in drinking water, Sigma-Aldrich), or 3) L-NAME+4μ8c (2.5 mg/kg/day i.p., Millipore). 4μ8c was administered in a vehicle of 10% DMSO, 10% Tween-80 and 80% normal saline. Animals in Group 2 received daily injections of the vehicle. All animals were fed a normal chow diet. At 18 days, animals were sacrificed, organs were harvested and the aorta was collected for mechanical and structural analysis. All animal work was performed according to the guidelines approved by the McMaster University Animal Research Ethics Board.
as §1
For qRT-PCR, cDNA was amplified using the Fast SYBR Green Master Mix (ThermoFisher) and analyzed with 7500 Software. […]
Cells were lysed in 1× Laemmli buffer and protein content was quantified using the BioRad DC Protein Assay (BioRad, Mississauga, Canada). […]

T1 sequence (A0A4Y1YQ52 21-977): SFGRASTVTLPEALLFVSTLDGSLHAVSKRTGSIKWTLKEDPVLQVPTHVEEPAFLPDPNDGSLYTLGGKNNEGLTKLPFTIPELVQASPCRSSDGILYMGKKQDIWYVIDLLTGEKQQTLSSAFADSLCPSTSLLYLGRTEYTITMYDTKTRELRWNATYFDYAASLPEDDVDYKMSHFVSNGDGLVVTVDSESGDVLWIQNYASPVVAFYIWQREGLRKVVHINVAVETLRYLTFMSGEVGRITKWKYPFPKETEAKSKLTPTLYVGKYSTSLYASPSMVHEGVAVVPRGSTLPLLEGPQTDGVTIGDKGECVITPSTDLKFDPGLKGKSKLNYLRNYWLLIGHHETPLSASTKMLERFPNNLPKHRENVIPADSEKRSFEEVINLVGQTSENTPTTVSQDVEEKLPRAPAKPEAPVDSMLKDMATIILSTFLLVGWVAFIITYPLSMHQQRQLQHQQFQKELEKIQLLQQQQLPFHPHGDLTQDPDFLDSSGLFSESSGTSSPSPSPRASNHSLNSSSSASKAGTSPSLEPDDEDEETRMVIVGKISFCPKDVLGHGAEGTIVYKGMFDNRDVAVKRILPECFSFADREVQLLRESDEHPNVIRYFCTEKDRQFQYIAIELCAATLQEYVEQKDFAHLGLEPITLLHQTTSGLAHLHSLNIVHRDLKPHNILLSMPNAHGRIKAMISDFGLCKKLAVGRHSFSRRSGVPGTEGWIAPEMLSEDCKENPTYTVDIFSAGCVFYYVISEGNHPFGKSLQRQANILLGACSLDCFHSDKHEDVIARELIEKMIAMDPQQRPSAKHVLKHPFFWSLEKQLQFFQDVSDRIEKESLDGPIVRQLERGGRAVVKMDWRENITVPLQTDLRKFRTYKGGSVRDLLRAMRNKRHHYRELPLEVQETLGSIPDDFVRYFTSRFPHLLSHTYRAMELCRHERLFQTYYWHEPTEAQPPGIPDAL

- TGF-β1 induced XBP1 splicing (IRE1α endonuclease; TGF-β1 (5 ng/ml) 24 h, co-treatment, FIG. 2A): blocked
- spliced-to-unspliced XBP1 ratio (IRE1α endonuclease; tunicamycin (1 μg/ml) 6 h, 4μ8c 30 μM or STF-083010 60 μM, FIG. 1A): reduced
Compound: Cc1cc(=O)oc2c(C=O)c(O)ccc12 [4μ8c, 7-Hydroxy-4-methyl-2-oxo-2H-chromene-8-carbaldehyde]
- GRP78 protein in the aorta (spliced XBP1, GRP78, PDI; L-NAME+4μ8c group compared to the other two groups, Western blot): significantly decreased
- PDI protein expression in the aorta (spliced XBP1, GRP78, PDI; L-NAME+4μ8c group vs L-NAME group, Western blot): significantly decreased
- Spliced XBP1 and GRP78 mRNA expression in the aorta (spliced XBP1, GRP78, PDI; L-NAME+4μ8c group vs L-NAME group, qRT-PCR, FIG. 6A): reduced

— patent US20190038597A1, “PREVENTION OF VASCULAR AND CARDIAC FIBROSIS VIA IRE1ALPHA INHIBITION” (McMaster University, priority 2017, published 2019)
